Assay results from ChEMBL document CHEMBL1201862, “PubChem BioAssay data set” (2004).
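Five compound concentrations were applied to cells in 96-well plates for 48 hours; endpoints were derived by simple linear interpolation of the resulting dose-response curve. GI50 is the concentration that inhibits growth by half.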 The source made the active and inactive calls. Rule as the data show it: active = GI50 up to about 1.1 µM and inactive = higher.

Columns and labels:
Experiment in all cases: NCI anticancer screen, dose series, 48 h
KM12 = system: KM12
U-251 = system: U-251
OVCAR-8 = system: OVCAR-8
DU-145 = system: DU-145
HCC 2998 = system: HCC 2998
TK-10 = system: TK-10
PC-3 = system: PC-3
HOP-62 = system: HOP-62
LOX IMVI = system: LOX IMVI
HL-60 = system: HL-60
SK-MEL-2 = system: SK-MEL-2
Hs-578T = system: Hs-578T
M14 = system: M14
786-0 = system: 786-0
NCI-H460 = system: NCI-H460
SNB-19 = system: SNB-19
NCI/ADR-RES = system: NCI/ADR-RES
RXF 393 = system: RXF 393
EKVX = system: EKVX
Malme-3M = system: Malme-3M
BT-549 = system: BT-549
CAKI-1 = system: CAKI-1
K562 = system: K562
SF-295 = system: SF-295
COLO 205 = system: COLO 205
HCT-15 = system: HCT-15
OVCAR-5 = system: OVCAR-5
HOP-92 = system: HOP-92
HCT-116 = system: HCT-116
HT-29 = system: HT-29
RPMI-8226 = system: RPMI-8226
MCF7 = system: MCF7
UO-31 = system: UO-31
CCRF-CEM = system: CCRF-CEM
SF-268 = system: SF-268
UACC-257 = system: UACC-257
SW-620 = system: SW-620
SN12C = system: SN12C
ACHN = system: ACHN
SK-MEL-5 = system: SK-MEL-5
A498 = system: A498
MOLT-4 = system: MOLT-4
MDA-MB-435 = system: MDA-MB-435
A549 = system: A549
NCI-H522 = system: NCI-H522
SK-OV-3 = system: SK-OV-3
SF-539 = system: SF-539
T47D = system: T47D
OVCAR-3 = system: OVCAR-3
SK-MEL-28 = system: SK-MEL-28
OVCAR-4 = system: OVCAR-4
SNB-75 = system: SNB-75
NCI-H23 = system: NCI-H23
MDA-N = system: MDA-N
MDA-MB-231 = system: MDA-MB-231
SR = system: SR
IGROV-1 = system: IGROV-1
UACC-62 = system: UACC-62
NCI-H226 = system: NCI-H226

Measured: GI50

N#CCc1n[nH]c2nc(SCc3ccccc3)nc(N3CCCCC3)c12
32.7 µM: HCT-15
inactive: KM12 17.7 µM | U-251 18.7 µM | OVCAR-8 38.9 µM | DU-145 18.2 µM | HCC 2998 17.5 µM | TK-10 23.1 µM | PC-3 18.8 µM | HOP-62 20.4 µM | LOX IMVI 21 µM | HL-60 25.8 µM | SK-MEL-2 20.7 µM | Hs-578T 21.4 µM | M14 19.4 µM | 786-0 17.3 µM | NCI-H460 19.6 µM | SNB-19 18.9 µM | NCI/ADR-RES 17.6 µM | RXF 393 17.1 µM | EKVX 20.5 µM | Malme-3M 24.5 µM | BT-549 18.6 µM | CAKI-1 19.9 µM | K562 18.6 µM | SF-295 19.6 µM | COLO 205 17.9 µM | OVCAR-5 20.2 µM | HOP-92 16.6 µM | HCT-116 17.7 µM | HT-29 20.3 µM | RPMI-8226 27.1 µM | MCF7 21.9 µM | UO-31 20.1 µM | CCRF-CEM 17.3 µM | SF-268 19.2 µM | UACC-257 20.8 µM | SW-620 19.5 µM | SN12C 13 µM | ACHN 21.2 µM | SK-MEL-5 18.5 µM | A498 30.5 µM | MOLT-4 20.6 µM | MDA-MB-435 19.9 µM | A549 19.3 µM | NCI-H522 19.3 µM | SK-OV-3 26.4 µM | SF-539 21.4 µM | T47D 19.5 µM | OVCAR-3 20.7 µM | SK-MEL-28 20.5 µM | OVCAR-4 19.5 µM | SNB-75 18.2 µM | NCI-H23 18.5 µM

CNC1c2ccccc2C(=O)c2cc3c(cc21)OCCOCCOCCOCCO3 (configuration not stated)
inactive: MDA-N 96.8 µM | KM12 > 100 µM | U-251 > 100 µM | OVCAR-8 > 100 µM | MDA-MB-231 82.2 µM | HCC 2998 > 100 µM | TK-10 > 100 µM | PC-3 > 100 µM | HOP-62 > 100 µM | HL-60 27.4 µM | SR 28.7 µM | Hs-578T > 100 µM | M14 > 100 µM | 786-0 > 100 µM | NCI-H460 > 100 µM | SNB-19 > 100 µM | NCI/ADR-RES > 100 µM | EKVX > 100 µM | K562 45.1 µM | SF-295 > 100 µM | COLO 205 > 100 µM | OVCAR-5 > 100 µM | HCT-116 > 100 µM | HT-29 54 µM | RPMI-8226 34.8 µM | MCF7 55.5 µM | UO-31 > 100 µM | CCRF-CEM 17.1 µM | SF-268 > 100 µM | UACC-257 > 100 µM | SW-620 81.3 µM | SN12C 99.1 µM | ACHN > 100 µM | SK-MEL-5 > 100 µM | IGROV-1 > 100 µM | MOLT-4 28.1 µM | MDA-MB-435 > 100 µM | A549 > 100 µM | NCI-H522 34.1 µM | SK-OV-3 > 100 µM | SF-539 > 100 µM | T47D > 100 µM | SK-MEL-28 > 100 µM | OVCAR-4 > 100 µM | SNB-75 > 100 µM
39.9 µM: HCT-15

CCN(CC)CCC1CCCCN1CC(=O)N1c2cc(Cl)ccc2NC(=O)CC1C (configuration not stated)
> 100 µM: HCT-15
inactive: MDA-N > 100 µM | KM12 > 100 µM | U-251 > 100 µM | OVCAR-8 > 100 µM | UACC-62 > 100 µM | DU-145 > 100 µM | MDA-MB-231 > 100 µM | HCC 2998 > 100 µM | TK-10 > 100 µM | PC-3 > 100 µM | HOP-62 > 100 µM | LOX IMVI > 100 µM | HL-60 > 100 µM | SK-MEL-2 > 100 µM | Hs-578T > 100 µM | M14 > 100 µM | 786-0 > 100 µM | NCI-H460 > 100 µM | SNB-19 > 100 µM | RXF 393 > 100 µM | EKVX > 100 µM | Malme-3M > 100 µM | CAKI-1 > 100 µM | K562 > 100 µM | SF-295 > 100 µM | COLO 205 > 100 µM | OVCAR-5 > 100 µM | HOP-92 > 100 µM | HCT-116 > 100 µM | HT-29 > 100 µM | RPMI-8226 > 100 µM | MCF7 > 100 µM | UO-31 > 100 µM | CCRF-CEM > 100 µM | NCI-H226 > 100 µM | SF-268 > 100 µM | SN12C > 100 µM | ACHN > 100 µM | SK-MEL-5 > 100 µM | A498 > 100 µM | IGROV-1 > 100 µM | MOLT-4 > 100 µM | MDA-MB-435 > 100 µM | A549 > 100 µM | NCI-H522 > 100 µM | SK-OV-3 > 100 µM | SF-539 > 100 µM | T47D > 100 µM | OVCAR-3 > 100 µM | SK-MEL-28 > 100 µM | OVCAR-4 > 100 µM | NCI-H23 > 100 µM
